From patent US9662327B2 (AGIOS PHARMACEUTICALS, INC, priority 2011, dated 2017)
pIC50: −log10 of the molar value. Like-named read-outs stand apart in the source and are kept apart here.

Biological target: IDH1 R132H (Homo sapiens (Human), UniProt O75874, R132H)
Assay: Assays for IDH1 R132H Inhibitors (NADPH/aKG, resazurin detection)
Assay type: biochemical
Details: IDH1 R132H enzyme
Experimental: Assays were conducted in a volume of […] assay buffer (150 mM NaCl, 10 mM MgCl2, 20 mM Tris pH 7.5, 0.03% bovine serum albumin) as follows in a standard 384-well plate: To 25 ul of substrate mix (8 uM NADPH, 2 mM aKG), 1 μl of test compound was added in DMSO. […] The reaction was incubated for 50 minutes at room temperature, then 25 μl of detection mix (30 μM resazurin, […]) was added and the mixture further incubated for 5 minutes at room temperature.

[1] = Table 2, read-out: IDHR132H Activity

Chain of IDH1 R132H (O75874 whole entry R132H): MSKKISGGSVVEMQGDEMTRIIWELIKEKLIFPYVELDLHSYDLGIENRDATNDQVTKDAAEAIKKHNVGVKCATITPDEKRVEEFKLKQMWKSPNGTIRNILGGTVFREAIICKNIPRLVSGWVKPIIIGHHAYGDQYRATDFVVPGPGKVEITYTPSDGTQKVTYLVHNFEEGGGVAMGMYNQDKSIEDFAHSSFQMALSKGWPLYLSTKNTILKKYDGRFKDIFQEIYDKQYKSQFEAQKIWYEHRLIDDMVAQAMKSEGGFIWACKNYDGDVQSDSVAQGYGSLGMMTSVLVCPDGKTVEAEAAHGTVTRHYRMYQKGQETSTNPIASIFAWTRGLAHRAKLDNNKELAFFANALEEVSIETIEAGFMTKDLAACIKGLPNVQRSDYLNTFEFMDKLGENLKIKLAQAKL

| pIC50 [1] | pIC50 (Table 3, read-out: R132H IC50) | SMILES |
| --- | --- | --- |
| > 6.30 | – | Cc1occc1C(=O)N1CCN(c2nc(C(C)C)c3c(c2C#N)CC(C)(C)OC3)C[C@H]1C(C)C [Compound 176, (R)-8-isopropyl-6-(3-isopropyl-4-(2-methylfuran-3-carbonyl)piperazin-1-yl)-3,3-dimethyl-3,4-dihydro-1H-pyrano[3,4-c]pyridine-5-carbonitrile] |
| – | 6.00 to 6.30 | CC1CN(c2nc(C3CC3)c3c(c2C#N)CC(C)(C)OC3)CC(F)CN1C(=O)C1CC1 (stereo not drawn) [Compound 474, 6-(4-(cyclopropanecarbonyl)-6-fluoro-3-methyl-1,4-diazepan-1-yl)-8-cyclopropyl-3,3-dimethyl-3,4-dihydro-1H-pyrano[3,4-c]pyridine-5-carbonitrile] |
| – | > 6.30 | COC(=O)OC[C@@H]1C[C@H]1C(=O)N1CCN(c2nc(C3CC3)c3c(c2C#N)CC(C)(C)OC3)C[C@H]1C(C)C [Compound 472, ((1R,2R)-2-((R)-4-(5-cyano-8-cyclopropyl-3,3-dimethyl-3,4-dihydro-1H-pyrano[3,4-c]pyridin-6-yl)-2-isopropylpiperazine-1-carbonyl)cyclopropyl)methyl methyl carbonate] |
| 5.00 to 6.00 | – | COCCC(=O)N1[C@H](C)CN(c2nc(C3CC3)c3c(c2C#N)CC(C)(C)OC3)C[C@@H]1C [Compound 356] |
| 5.00 to 6.00 | – | CC(C)[C@@H]1CN(c2nc(C3CC3)c3c(c2C#N)CC(C)(C)OC3)CCN1C(=O)Nc1ccc(F)cc1 [Compound 283] |
| 6.00 to 6.30 | – | C[C@@H]1CN(c2nc(C3CC3)c3c(c2C#N)CC(C)(C)OC3)CCN1C(=O)c1ccoc1 [Compound 164] |
| 5.00 to 6.00 | – | CC1(C)Cc2c(C#N)c(N3CCN(C(=O)c4ccco4)C(C)(C)C3)nc(C3CC3)c2CO1 [Compound 319] |
| 5.00 to 6.00 | – | CC1CN(c2nc(C3CCCCC3)c3c(c2C#N)CC(C)(C)OC3)CCN1C(=O)c1ccco1 (stereo not drawn) [Compound 168, 8-cyclohexyl-6-(4-(furan-2-carbonyl)-3-methylpiperazin-1-yl)-3,3-dimethyl-3,4-dihydro-1H-pyrano[3,4-c]pyridine-5-carbonitrile] |
| 5.00 to 6.00 | – | CC(C)[C@@H]1CN(c2nc(C3CC3)c3c(c2C#N)CC(C)(C)OC3)CCN1C(=O)N(C)C [Compound 351] |
| 6.00 to 6.30 | – | CC(C)[C@@H]1CN(c2nc(C3CC3)c3c(c2C#N)CC(C)(C)OC3)CCN1C(=O)OCCO [Compound 368, (R)-2-hydroxyethyl 4-(5-cyano-8-cyclopropyl-3,3-dimethyl-3,4-dihydro-1H-pyrano[3,4-c]pyridin-6-yl)-2-isopropylpiperazine-1-carboxylate] |
| 6.00 to 6.30 | – | COCCC(=O)N1CCN(c2nc(C3CC3)c3c(c2C#N)CC(C)(C)OC3)CC1C(=O)OC (stereo not drawn) [Compound 388] |
| 5.00 to 6.00 | – | CC1CN(c2nc(C3CCCCC3)c3c(c2C#N)CC(C)(C)OC3)CCN1C(=O)c1ccoc1 (stereo not drawn) [Compound 169, 8-cyclohexyl-6-(4-(furan-3-carbonyl)-3-methylpiperazin-1-yl)-3,3-dimethyl-3,4-dihydro-1H-pyrano[3,4-c]pyridine-5-carbonitrile] |
| 5.00 to 6.00 | – | CCCCCNC(=O)N1CCN(c2nc(C3CC3)c3c(c2C#N)CC(C)(C)OC3)C[C@H]1C(C)C [Compound 327] |

Second part, the molecule before the results:

| SMILES | pIC50 [1] | pIC50 (Table 3, read-out: R132H IC50) |
| --- | --- | --- |
| CC(C)c1nc(N2CCN(C(=O)c3ccco3)CC2)c(C#N)c2c1CC(C)(C)CC2 [Compound 116, 3-(4-(furan-2-carbonyl)piperazin-1-yl)-1-isopropyl-7,7-dimethyl-5,6,7,8-tetrahydroisoquinoline-4-carbonitrile] | 5.00 to 6.00 | – |
| CC(C)c1nc(N2CCN(C(=O)c3ccoc3)C(c3ccccc3)C2)c(C#N)c2c1COC(C)(C)C2 (stereo not drawn) [Compound 155, 6-(4-(furan-3-carbonyl)-3-phenylpiperazin-1-yl)-8-isopropyl-3,3-dimethyl-3,4-dihydro-1H-pyrano[3,4-c]pyridine-5-carbonitrile] | 5.00 to 6.00 | – |
| CC(C)c1nc(N2CCN(C(=O)NC3CCCCC3)CC2)c(C#N)c2c1CCCC2 [Compound 115, 4-(4-cyano-1-isopropyl-5,6,7,8-tetrahydroisoquinolin-3-yl)-N-cyclohexylpiperazine-1-carboxamide] | 5.00 to 6.00 | – |
| C[C@@H]1CN(c2nc(C3CCCCC3)c3c(c2C#N)CCOC3)CCN1C(=O)Cc1cccc(F)c1 [Compound 191, (R)-8-cyclohexyl-6-(4-(2-(3-fluorophenyl)acetyl)-3-methylpiperazin-1-yl)-3,4-dihydro-1H-pyrano[3,4-c]pyridine-5-carbonitrile] | 5.00 to 6.00 | – |
| COc1cccc(CC(=O)N2CCN(c3nc(C(C)C)c4c(c3C#N)CC(C)(C)OC4)C[C@H]2C(C)C)c1 [Compound 233, (R)-8-isopropyl-6-(3-isopropyl-4-(2-(3-methoxyphenyl)acetyl)piperazin-1-yl)-3,3-dimethyl-3,4-dihydro-1H-pyrano[3,4-c]pyridine-5-carbonitrile] | 5.00 to 6.00 | – |
| CC(=O)N1CCN(c2nc(C3CCCCC3)c3c(c2C#N)CCOC3)C[C@H]1C [Compound 362, (R)-6-(4-acetyl-3-methylpiperazin-1-yl)-8-cyclohexyl-3,4-dihydro-1H-pyrano[3,4-c]pyridine-5-carbonitrile] | 5.00 to 6.00 | – |
| CC(C)c1nc(N2CCN(C(=O)Cc3ccccn3)[C@H](C(C)C)C2)c(C#N)c2c1COC(C)(C)C2 [Compound 214, (R)-8-isopropyl-6-(3-isopropyl-4-(2-(pyridin-2-yl)acetyl)piperazin-1-yl)-3,3-dimethyl-3,4-dihydro-1H-pyrano[3,4-c]pyridine-5-carbonitrile] | 6.00 to 6.30 | – |
| Cc1cc(C(=O)N2CCN(c3nc(C(C)C)c4c(c3C#N)CC(C)(C)OC4)C[C@H]2C)c(C)o1 [Compound 196, (R)-6-(4-(2,5-dimethylfuran-3-carbonyl)-3-methylpiperazin-1-yl)-8-isopropyl-3,3-dimethyl-3,4-dihydro-1H-pyrano[3,4-c]pyridine-5-carbonitrile] | 5.00 to 6.00 | – |
| CCOC(=O)C1CN(c2nc(C(C)C)c3c(c2C#N)CC(C)(C)OC3)CCN1C(=O)c1ccoc1 (stereo not drawn) [Compound 276] | 6.00 to 6.30 | – |
| COCCC(=O)N1CCN(c2nc(C3CC3)c3c(c2C#N)CCN(C(C)=O)C3)C[C@H]1C1CC1 [Compound 478, (R)-7-acetyl-1-cyclopropyl-3-(3-cyclopropyl-4-(3-methoxypropanoyl)piperazin-1-yl)-5,6,7,8-tetrahydro-2,7-naphthyridine-4-carbonitrile] | – | > 6.30 |
| C[C@@H]1CN(c2nc(C3CCCCC3)c3c(c2C#N)CCOC3)CCN1C(=O)Cc1ccccc1F [Compound 188, (R)-8-cyclohexyl-6-(4-(2-(2-fluorophenyl)acetyl)-3-methylpiperazin-1-yl)-3,4-dihydro-1H-pyrano[3,4-c]pyridine-5-carbonitrile] | 5.00 to 6.00 | – |
| C/C=C/C(=O)N1CCc2c(C#N)c(N3CCN(C(=O)C4CC4)[C@H](C4CC4)C3)nc(C3CC3)c2C1 [Compound 499, (R,E)-7-but-2-enoyl-3-(4-(cyclopropanecarbonyl)-3-cyclopropylpiperazin-1-yl)-1-cyclopropyl-5,6,7,8-tetrahydro-2,7-naphthyridine-4-carbonitrile] | – | 6.00 to 6.30 |
| C[C@@H]1CN(c2nc(C3CCCCC3)c3c(c2C#N)CCOC3)CCN1C(=O)C1CCOC1 (stereo partly drawn) [Compound 263, 8-cyclohexyl-6-((3R)-3-methyl-4-(tetrahydrofuran-3-carbonyl)piperazin-1-yl)-3,4-dihydro-1H-pyrano[3,4-c]pyridine-5-carbonitrile] | 5.00 to 6.00 | – |
| CC1(C)Cc2c(C#N)c(N3CCN(C(=O)c4ccco4)[C@@H](c4ccccc4)C3)nc(C3CC3)c2CO1 [Compound 273] | 6.00 to 6.30 | – |
